Results from patent US20250163104A1, “MACROCYCLIC IMMUNOMODULATORS” (priority 2021, published 2025).
pIC50: −log10 of the molar value. Where a SMILES comes first, the peptide text is derived from it. Bridges are numbered along the chain shown (N, C = ends). [ ]: non-standard residue; d: D form. The star is where a group is joined. Phe(3,4,5-F3) = N[C@@H](Cc1cc(F)c(F)c(F)c1)C(=O)O; Phe(3,4-Cl2) = N[C@@H](Cc1ccc(Cl)c(Cl)c1)C(=O)O; Phe(2-CF3) = N[C@@H](Cc1ccccc1C(F)(F)F)C(=O)O; Phe(3,4-F2) = N[C@@H](Cc1ccc(F)c(F)c1)C(=O)O; Bip = N[C@@H](Cc1ccc(-c2ccccc2)cc1)C(=O)O; Phe(3-Cl) = N[C@@H](Cc1cccc(Cl)c1)C(=O)O; Phe(2-CN) = N#Cc1ccccc1C[C@H](N)C(=O)O; Phe(2-Cl) = N[C@@H](Cc1ccccc1Cl)C(=O)O; Phe(2-F) = N[C@@H](Cc1ccccc1F)C(=O)O; Phe(2-Me) = Cc1ccccc1C[C@H](N)C(=O)O; Cha = N[C@@H](CC1CCCCC1)C(=O)O; Carboxymethyl = O=C(O)C*; Orn = NCCC[C@H](N)C(=O)O; Dab = NCC[C@H](N)C(=O)O; Dap = NC[C@H](N)C(=O)O

Target: T1, human PD-1 / PD-L1-Ig binding on Jurkat cell line over-expressing human PD-1 (Jurkat-PD-1) (Homo sapiens, UniProt Q15116)
T1 construct: expressed in transfected cells; host or cells: Jurkat
T1 sequence (Q15116 25-288): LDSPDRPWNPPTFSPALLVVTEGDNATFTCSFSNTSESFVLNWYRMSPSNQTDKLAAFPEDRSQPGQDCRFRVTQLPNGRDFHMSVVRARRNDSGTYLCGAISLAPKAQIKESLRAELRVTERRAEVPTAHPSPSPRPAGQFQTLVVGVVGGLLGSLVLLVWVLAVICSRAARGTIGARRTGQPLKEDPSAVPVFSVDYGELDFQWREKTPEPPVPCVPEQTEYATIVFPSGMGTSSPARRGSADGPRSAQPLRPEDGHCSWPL
Assay: Jurkat-PD-1 Cell Binding High-Content Screening Assay (CBA)
Format: cell-based
Details: Jurkat-PD-1 cells, PE-labeled PD-L1-Ig 20 nM final; read-out: Jurkat HPD1_PDL1 IC50
Outline: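 PE-PD-L1-Ig 20 nM final; cells in DMEM/10% FCS; cpd pre-incubation 2 h, 37° C; ligand 1 h; PFA fix + Hoechst 33342; high-content imaging read-out.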

Compound	pIC50
CC(C)C[C@H]1NC(=O)[C@H](CCCN)NC(=O)[C@H](CCC(=O)O)NC(=O)[C@H](Cc2ccc(-c3ccccc3)cc2)NC(=O)[C@H](C(C)C)NC(=O)[C@H](Cc2c[nH]c3ccccc23)NC(=O)[C@H](CC(=O)O)NC(=O)[C@H](Cc2ccc(OCC(=O)O)cc2)NC(=O)[C@H](CN)NC(=O)CSC[C@@H](C(=O)N[C@@H](C)C(N)=O)NC(=O)[C@H]([C@@H](C)O)NC(=O)[C@H](C(C)C)NC(=O)[C@H](Cc2cc(F)c(F)c(F)c2)NC(=O)[C@H](CCN)NC1=O [Compound 1480] ({CH2CO}-[Dap]Y(Carboxymethyl)DWV[Bip]E[Orn][dL][Dab][Phe(3,4,5-F3)]VTCA-NH2; thioether N-14)	6.82
CC(C)C[C@H]1NC(=O)[C@H](CCCN)NC(=O)[C@H](CCC(=O)O)NC(=O)[C@H](Cc2ccc(-c3ccccc3)cc2)NC(=O)[C@H](C(C)C)NC(=O)[C@H](Cc2c[nH]c3ccccc23)NC(=O)[C@H](CC(=O)O)NC(=O)[C@H](Cc2ccc(OCC(=O)O)cc2)NC(=O)[C@H](CN)NC(=O)CSC[C@@H](C(=O)N[C@@H](C)C(N)=O)NC(=O)[C@H]([C@@H](C)O)NC(=O)[C@H](C(C)C)NC(=O)[C@H](Cc2ccc(Cl)c(Cl)c2)NC(=O)[C@H](CCN)NC1=O [Compound 1481] ({CH2CO}-[Dap]Y(Carboxymethyl)DWV[Bip]E[Orn][dL][Dab][Phe(3,4-Cl2)]VTCA-NH2; thioether N-14)	7.17
CC(C)C[C@H]1NC(=O)[C@H](CCCN)NC(=O)[C@H](CCC(=O)O)NC(=O)[C@H](Cc2ccc(-c3ccccc3)cc2)NC(=O)[C@H](C(C)C)NC(=O)[C@H](Cc2c[nH]c3ccccc23)NC(=O)[C@H](CC(=O)O)NC(=O)[C@H](Cc2ccc(OCC(=O)O)cc2)NC(=O)[C@H](CN)NC(=O)CSC[C@@H](C(=O)N[C@@H](C)C(N)=O)NC(=O)[C@H]([C@@H](C)O)NC(=O)[C@H](C(C)C)NC(=O)[C@H](Cc2ccc(F)c(F)c2)NC(=O)[C@H](CCN)NC1=O [Compound 1482] ({CH2CO}-[Dap]Y(Carboxymethyl)DWV[Bip]E[Orn][dL][Dab][Phe(3,4-F2)]VTCA-NH2; thioether N-14)	6.98
CC(C)C[C@H]1NC(=O)[C@H](CCCN)NC(=O)[C@H](CCC(=O)O)NC(=O)[C@H](Cc2ccc(-c3ccccc3)cc2)NC(=O)[C@H](C(C)C)NC(=O)[C@H](Cc2c[nH]c3ccccc23)NC(=O)[C@H](CC(=O)O)NC(=O)[C@H](Cc2ccc(OCC(=O)O)cc2)NC(=O)[C@H](CN)NC(=O)CSC[C@@H](C(=O)N[C@@H](C)C(N)=O)NC(=O)[C@H]([C@@H](C)O)NC(=O)[C@H](C(C)C)NC(=O)[C@H](Cc2ccccc2Cl)NC(=O)[C@H](CCN)NC1=O [Compound 1483] ({CH2CO}-[Dap]Y(Carboxymethyl)DWV[Bip]E[Orn][dL][Dab][Phe(2-Cl)]VTCA-NH2; thioether N-14)	7.46
CC(C)C[C@H]1NC(=O)[C@H](CCCN)NC(=O)[C@H](CCC(=O)O)NC(=O)[C@H](Cc2ccc(-c3ccccc3)cc2)NC(=O)[C@H](C(C)C)NC(=O)[C@H](Cc2c[nH]c3ccccc23)NC(=O)[C@H](CC(=O)O)NC(=O)[C@H](Cc2ccc(OCC(=O)O)cc2)NC(=O)[C@H](CN)NC(=O)CSC[C@@H](C(=O)N[C@@H](C)C(N)=O)NC(=O)[C@H]([C@@H](C)O)NC(=O)[C@H](C(C)C)NC(=O)[C@H](Cc2ccccc2C(F)(F)F)NC(=O)[C@H](CCN)NC1=O [Compound 1486] ({CH2CO}-[Dap]Y(Carboxymethyl)DWV[Bip]E[Orn][dL][Dab][Phe(2-CF3)]VTCA-NH2; thioether N-14)	7.36
CC(C)C[C@H]1NC(=O)[C@H](CCCN)NC(=O)[C@H](CCC(=O)O)NC(=O)[C@H](Cc2ccc(-c3ccccc3)cc2)NC(=O)[C@H](C(C)C)NC(=O)[C@H](Cc2c[nH]c3ccccc23)NC(=O)[C@H](CC(=O)O)NC(=O)[C@H](Cc2ccc(OCC(=O)O)cc2)NC(=O)[C@H](CN)NC(=O)CSC[C@@H](C(=O)N[C@@H](C)C(N)=O)NC(=O)[C@H]([C@@H](C)O)NC(=O)[C@H](C(C)C)NC(=O)[C@H](Cc2ccccc2C#N)NC(=O)[C@H](CCN)NC1=O [Compound 1487] ({CH2CO}-[Dap]Y(Carboxymethyl)DWV[Bip]E[Orn][dL][Dab][Phe(2-CN)]VTCA-NH2; thioether N-14)	6.57
CC(C)C[C@H]1NC(=O)[C@H](CCCN)NC(=O)[C@H](CCC(=O)O)NC(=O)[C@H](Cc2ccc(-c3ccccc3)cc2)NC(=O)[C@H](C(C)C)NC(=O)[C@H](Cc2cccc(Cl)c2)NC(=O)[C@H](CC(=O)O)NC(=O)[C@H](Cc2ccc(OCC(=O)O)cc2)NC(=O)[C@H](Cc2ccc(OCC(=O)O)cc2)NC(=O)CSC[C@@H](C(=O)N[C@@H](C)C(N)=O)NC(=O)[C@H]([C@@H](C)O)NC(=O)[C@H](C(C)C)NC(=O)[C@H](CC2CCCCC2)NC(=O)[C@H](CCN)NC1=O [Compound 1490]	7.69

Molecules with a higher pIC50, results first:

pIC50	Compound
7.81	CC(C)C[C@H]1NC(=O)[C@H](CCCN)NC(=O)[C@H](CCC(=O)O)NC(=O)[C@H](Cc2ccc(-c3ccccc3)cc2)NC(=O)[C@H](C(C)C)NC(=O)[C@H](Cc2c[nH]c3ccccc23)NC(=O)[C@H](CC(=O)O)NC(=O)[C@H](Cc2ccc(OCC(=O)O)cc2)NC(=O)[C@H](CN)NC(=O)CSC[C@@H](C(=O)N[C@@H](C)C(N)=O)NC(=O)[C@H]([C@@H](C)O)NC(=O)[C@H](C(C)C)NC(=O)[C@H](Cc2ccccc2F)NC(=O)[C@H](CCN)NC1=O [Compound 1485] ({CH2CO}-[Dap]Y(Carboxymethyl)DWV[Bip]E[Orn][dL][Dab][Phe(2-F)]VTCA-NH2; thioether N-14)
7.87	CC(C)C[C@H]1NC(=O)[C@H](CCCN)NC(=O)[C@H](CCC(=O)O)NC(=O)[C@H](Cc2ccc(-c3ccccc3)cc2)NC(=O)[C@H](C(C)C)NC(=O)[C@H](Cc2cccc(Cl)c2)NC(=O)[C@H](CC(=O)O)NC(=O)[C@H](Cc2ccc(O)cc2)NC(=O)[C@H](Cc2ccncc2)NC(=O)CSC[C@@H](C(=O)N[C@@H](C)C(N)=O)NC(=O)[C@H]([C@@H](C)O)NC(=O)[C@H](C(C)C)NC(=O)[C@H](CC2CCCCC2)NC(=O)[C@H](CCN)NC1=O [Compound 1489]
7.91	Cc1ccccc1C[C@@H]1NC(=O)[C@H](CCN)NC(=O)[C@@H](CC(C)C)NC(=O)[C@H](CCCN)NC(=O)[C@H](CCC(=O)O)NC(=O)[C@H](Cc2ccc(-c3ccccc3)cc2)NC(=O)[C@H](C(C)C)NC(=O)[C@H](Cc2c[nH]c3ccccc23)NC(=O)[C@H](CC(=O)O)NC(=O)[C@H](Cc2ccc(OCC(=O)O)cc2)NC(=O)[C@H](CN)NC(=O)CSC[C@@H](C(=O)N[C@@H](C)C(N)=O)NC(=O)[C@H]([C@@H](C)O)NC(=O)[C@H](C(C)C)NC1=O [Compound 1484] ({CH2CO}-[Dap]Y(Carboxymethyl)DWV[Bip]E[Orn][dL][Dab][Phe(2-Me)]VTCA-NH2; thioether N-14)
7.97	CC(C)C[C@H]1NC(=O)[C@H](CCCN)NC(=O)[C@H](CCC(=O)O)NC(=O)[C@H](Cc2ccc(-c3ccccc3)cc2)NC(=O)[C@H](C(C)C)NC(=O)[C@H](Cc2cccc(Cl)c2)NC(=O)[C@H](CC(=O)O)NC(=O)[C@H](Cc2ccc(OCC(=O)O)cc2)NC(=O)[C@H](Cc2ccccc2)NC(=O)CSC[C@@H](C(=O)N[C@@H](C)C(N)=O)NC(=O)[C@H]([C@@H](C)O)NC(=O)[C@H](C(C)C)NC(=O)[C@H](CC2CCCCC2)NC(=O)[C@H](CCN)NC1=O [Compound 1488] ({CH2CO}-FY(Carboxymethyl)D[Phe(3-Cl)]V[Bip]E[Orn][dL][Dab][Cha]VTCA-NH2; thioether N-14)
